Experimental data published in patent US8952024B2, “Herbicidal pyrimidone derivatives” (E I du Pont de Nemours and Company, priority 2009, dated 2015).

Key:
Experiment in all cases: Test B pre-/postemergence plant response
Type in all cases: in vivo
[1] = test system: Italian ryegrass (Lolium multiflorum)
Summary of the method: (§1)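 Ratings reflect visual comparison with untreated controls 13 to 15 days after application, from 0 (no effect) to 100 (complete control). Application was preemergence to seeded loam/sand soil or postemergence to 1- to 4-leaf plants, with compound in a non-phytotoxic, surfactant-containing solvent.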

[2] = test system: Surinam grass (Brachiaria decumbens)
Summary of the method: as §1

[3] = test system: bermudagrass (Cynodon dactylon)
Summary of the method: as §1

[4] = test system: blackgrass (Alopecurus myosuroides)
Summary of the method: as §1

[5] = test system: cocklebur (Xanthium strumarium)
Summary of the method: as §1

corn (Zea mays) = test system: corn (Zea mays)
Summary of the method: as §1

[6] = test system: downy bromegrass (Bromus tectorum)
Summary of the method: as §1

[7] = test system: green foxtail (Setaria viridis)
Summary of the method: as §1

kochia (Kochia scoparia) = test system: kochia (Kochia scoparia)
Summary of the method: as §1

[8] = test system: lambsquarters (Chenopodium album)
Summary of the method: as §1

[9] = test system: large crabgrass (Digitaria sanguinalis)
Summary of the method: as §1

[10] = test system: pigweed (Amaranthus retroflexus)
Summary of the method: as §1

[11] = test system: ragweed (common ragweed, Ambrosia elatior)
Summary of the method: as §1

soybean (Glycine max) = test system: soybean (Glycine max)
Summary of the method: as §1

[12] = test system: velvetleaf (Abutilon theophrasti)
Summary of the method: as §1

wild oat (Avena fatua) = test system: wild oat (Avena fatua)
Summary of the method: as §1

[13] = test system: yellow nutsedge (Cyperus esculentus)
Summary of the method: as §1

[14] = 31 g ai/ha, postemergence, scale 0 to 100, 0 is no effect, 100 is complete control
[15] = Postemergence, 62 g ai/ha, scale 0 (no effect) to 100 (complete control), 13 to 15 days
[16] = Postemergence, 125 g ai/ha, visual rating after 13 to 15 days, scale 0 (no effect) to 100 (complete control)
[17] = Postemergence, 250 g ai/ha, scale 0 to 100 (0 no effect, 100 complete control)
[18] = Preemergence, 31 g ai/ha, scale 0 to 100 (0 no effect, 100 complete control)
[19] = Preemergence, 62 g ai/ha, scale 0 to 100, 0 no effect, 100 complete control
[20] = Preemergence, 125 g ai/ha, scale 0 to 100, 0 no effect, 100 complete control
[21] = 250 g ai/ha, Preemergence, 0 to 100 scale

SMILES: CCCCc1ncc(C(=O)C2=C(O)CCCC2=O)c(=O)n1-c1ccccc1C [Compound 62]
- Plant response rating, Ryegrass, Italian [1, 14]: 0
- Plant response rating, Ryegrass, Italian [1, 15]: 5
- Plant response rating, Ryegrass, Italian [1, 16]: 50
- Plant response rating, Ryegrass, Italian [1, 17]: 50
- Plant response rating, Ryegrass, Italian [1, 18]: 0
- Plant response rating, Ryegrass, Italian [1, 19]: 0
- Plant response rating, Ryegrass, Italian [1, 20]: 0
- Plant response rating, Surinam Grass [2, 14]: 20
- Plant response rating, Surinam Grass [2, 15]: 45
- Plant response rating, Surinam Grass [2, 16]: 65
- Plant response rating, Surinam Grass [2, 17]: 70
- Plant response rating, Surinam Grass [2, 18]: 5
- Plant response rating, Surinam Grass [2, 19]: 20
- Plant response rating, Surinam Grass [2, 20]: 25
- Plant response rating, Bermudagrass [3, 21]: 100
- Plant response rating, Bermudagrass [3, 15]: 80
- Plant response rating, Bermudagrass [3, 16]: 85
- Plant response rating, Bermudagrass [3, 17]: 90
- Plant response rating, Bermudagrass [3, 18]: 20
- Plant response rating, Bermudagrass [3, 19]: 75
- Plant response rating, Bermudagrass [3, 20]: 95
- Plant response rating, Blackgrass [4, 14]: 15
- Plant response rating, Blackgrass [4, 21]: 0
- Plant response rating, Blackgrass [4, 15]: 30
- Plant response rating, Blackgrass [4, 16]: 30
- Plant response rating, Blackgrass [4, 17]: 50
- Plant response rating, Blackgrass [4, 18]: 0
- Plant response rating, Blackgrass [4, 19]: 0
- Plant response rating, Blackgrass [4, 20]: 0
- Plant response rating, Cocklebur [5, 14]: 25
- Plant response rating, Cocklebur [5, 21]: 10
- Plant response rating, Cocklebur [5, 15]: 55
- Plant response rating, Cocklebur [5, 16]: 55
- Plant response rating, Cocklebur [5, 17]: 75
- Plant response rating, Cocklebur [5, 18]: 0
- Plant response rating, Cocklebur [5, 19]: 0
- Plant response rating, Cocklebur [5, 20]: 0
- Plant response rating, Corn (corn (Zea mays); [14]): 70
- Plant response rating, Corn (corn (Zea mays); [15]): 70
- Plant response rating, Corn (corn (Zea mays); [16]): 75
- Plant response rating, Corn (corn (Zea mays); [17]): 80
- Plant response rating, Corn (corn (Zea mays); [18]): 0
- Plant response rating, Corn (corn (Zea mays); [20]): 0
- Plant response rating, Bromegrass, Downy [6, 14]: 30
- Plant response rating, Bromegrass, Downy [6, 21]: 0
- Plant response rating, Bromegrass, Downy [6, 15]: 45
- Plant response rating, Bromegrass, Downy [6, 16]: 50
- Plant response rating, Bromegrass, Downy [6, 17]: 50
- Plant response rating, Bromegrass, Downy [6, 18]: 0
- Plant response rating, Bromegrass, Downy [6, 19]: 0
- Plant response rating, Bromegrass, Downy [6, 20]: 0
- Plant response rating, Foxtail, Green [7, 14]: 40
- Plant response rating, Foxtail, Green [7, 21]: 10
- Plant response rating, Foxtail, Green [7, 15]: 70
- Plant response rating, Foxtail, Green [7, 16]: 80
- Plant response rating, Foxtail, Green [7, 17]: 85
- Plant response rating, Foxtail, Green [7, 18]: 0
- Plant response rating, Foxtail, Green [7, 19]: 0
- Plant response rating, Foxtail, Green [7, 20]: 10
- Plant response rating, Kochia (kochia (Kochia scoparia); [14]): 10
- Plant response rating, Kochia (kochia (Kochia scoparia); [21]): 100
- Plant response rating, Kochia (kochia (Kochia scoparia); [15]): 25
- Plant response rating, Kochia (kochia (Kochia scoparia); [16]): 60
- Plant response rating, Kochia (kochia (Kochia scoparia); [17]): 80
- Plant response rating, Kochia (kochia (Kochia scoparia); [18]): 98
- Plant response rating, Kochia (kochia (Kochia scoparia); [19]): 100
- Plant response rating, Kochia (kochia (Kochia scoparia); [20]): 100
- Plant response rating, Lambsquarters [8, 14]: 85
- Plant response rating, Lambsquarters [8, 21]: 100
- Plant response rating, Lambsquarters [8, 15]: 95
- Plant response rating, Lambsquarters [8, 16]: 98
- Plant response rating, Lambsquarters [8, 17]: 100
- Plant response rating, Lambsquarters [8, 18]: 98
- Plant response rating, Lambsquarters [8, 19]: 98
- Plant response rating, Lambsquarters [8, 20]: 100
- Plant response rating, Crabgrass, Large [9, 14]: 55
- Plant response rating, Crabgrass, Large [9, 21]: 98
- Plant response rating, Crabgrass, Large [9, 15]: 75
- Plant response rating, Crabgrass, Large [9, 16]: 80
- Plant response rating, Crabgrass, Large [9, 17]: 85
- Plant response rating, Crabgrass, Large [9, 18]: 0
- Plant response rating, Crabgrass, Large [9, 19]: 50
- Plant response rating, Crabgrass, Large [9, 20]: 80
- Plant response rating, Pigweed [10, 14]: 98
- Plant response rating, Pigweed [10, 15]: 98
- Plant response rating, Pigweed [10, 16]: 100
- Plant response rating, Pigweed [10, 17]: 100
- Plant response rating, Pigweed [10, 18]: 45
- Plant response rating, Pigweed [10, 19]: 98
- Plant response rating, Pigweed [10, 20]: 100
- Plant response rating, Ragweed [11, 14]: 70
- Plant response rating, Ragweed [11, 15]: 75
- Plant response rating, Ragweed [11, 16]: 75
- Plant response rating, Ragweed [11, 17]: 80
- Plant response rating, Ragweed [11, 18]: 0
- Plant response rating, Ragweed [11, 19]: 20
- Plant response rating, Ragweed [11, 20]: 45
- Plant response rating, Soybean (soybean (Glycine max); [14]): 75
- Plant response rating, Soybean (soybean (Glycine max); [15]): 80
- Plant response rating, Soybean (soybean (Glycine max); [16]): 90
- Plant response rating, Soybean (soybean (Glycine max); [17]): 95
- Plant response rating, Soybean (soybean (Glycine max); [18]): 0
- Plant response rating, Soybean (soybean (Glycine max); [19]): 80
- Plant response rating, Soybean (soybean (Glycine max); [20]): 80
- Plant response rating, Velvetleaf [12, 14]: 85
- Plant response rating, Velvetleaf [12, 15]: 95
- Plant response rating, Velvetleaf [12, 16]: 95
- Plant response rating, Velvetleaf [12, 17]: 100
- Plant response rating, Velvetleaf [12, 18]: 75
- Plant response rating, Velvetleaf [12, 19]: 75
- Plant response rating, Velvetleaf [12, 20]: 95
- Plant response rating, Oat, Wild (wild oat (Avena fatua); [14]): 5
- Plant response rating, Oat, Wild (wild oat (Avena fatua); [15]): 10
- Plant response rating, Oat, Wild (wild oat (Avena fatua); [16]): 25
- Plant response rating, Oat, Wild (wild oat (Avena fatua); [17]): 40
- Plant response rating, Oat, Wild (wild oat (Avena fatua); [18]): 0
- Plant response rating, Oat, Wild (wild oat (Avena fatua); [19]): 0
- Plant response rating, Oat, Wild (wild oat (Avena fatua); [20]): 0
- Plant response rating, Nutsedge, Yellow [13, 14]: 15
- Plant response rating, Nutsedge, Yellow [13, 15]: 25
- Plant response rating, Nutsedge, Yellow [13, 16]: 35
- Plant response rating, Nutsedge, Yellow [13, 17]: 55
- Plant response rating, Nutsedge, Yellow [13, 18]: 15
- Plant response rating, Nutsedge, Yellow [13, 19]: 25
- Plant response rating, Nutsedge, Yellow [13, 20]: 45
